How the values were obtained:
Assay in all cases: relative viability (nuclei count vs DMSO), 5 days (fraction); higher = more cells survive
Motesanib + AZD7762 = compound: CC1(C)CNc2cc(NC(=O)c3cccnc3NCc3ccncc3)ccc21 [Motesanib] + NC(=O)Nc1cc(-c2cccc(F)c2)sc1C(=O)N[C@H]1CCCNC1 [AZD7762] (partner 0.2 µM)
In short: (§1)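 One day after seeding in 1536-well plates, lung cancer cell lines were dosed by pin tool. Dosing was either single-drug or a fixed anchor-drug dose plus five library-drug doses (not always all listed) in √10 steps. After 5 days, nuclei were stained in one fix-and-stain step and counted on 4× images, and relative viability is the nuclei count of treated wells over that of vehicle wells, given as the median of duplicate plates.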

[1] = compound: C[C@@]1(C(=O)Nc2ccc(F)nc2)CCCN1c1nc(Nc2cc(C3CC3)n[nH]2)c2cccn2n1 + N=C(N)NC(=N)NCCc1ccccc1 [Phenformin] (partner 250 µM)
In short: as §1

Motesanib + Tozasertib = compound: CC1(C)CNc2cc(NC(=O)c3cccnc3NCc3ccncc3)ccc21 [Motesanib] + Cc1cc(Nc2cc(N3CCN(C)CC3)nc(Sc3ccc(NC(=O)C4CC4)cc3)n2)n[nH]1 [Tozasertib] (partner 0.1 µM)
In short: as §1

Motesanib + Pemetrexed = compound: CC1(C)CNc2cc(NC(=O)c3cccnc3NCc3ccncc3)ccc21 [Motesanib] + Nc1nc2[nH]cc(CCc3ccc(C(=O)N[C@@H](CCC(=O)O)C(=O)O)cc3)c2c(=O)[nH]1 [Pemetrexed] (partner 0.2 µM)
In short: as §1

Cell Line	relative viability (Motesanib + AZD7762; first compound 0.01 µM)	relative viability (Motesanib + AZD7762; first compound 0.03162 µM)	relative viability (Motesanib + AZD7762; first compound 0.1 µM)	relative viability (Motesanib + AZD7762; first compound 0.3162 µM)	relative viability (Motesanib + AZD7762; first compound 1 µM)	relative viability ([1]; first compound 0.04 µM)	relative viability ([1]; first compound 0.1265 µM)	relative viability ([1]; first compound 0.4 µM)	relative viability ([1]; first compound 1.265 µM)	relative viability (Motesanib + Tozasertib; first compound 0.01 µM)	relative viability (Motesanib + Tozasertib; first compound 0.03162 µM)	relative viability (Motesanib + Tozasertib; first compound 0.1 µM)	relative viability (Motesanib + Tozasertib; first compound 0.3162 µM)	relative viability (Motesanib + Tozasertib; first compound 1 µM)	relative viability (Motesanib + Pemetrexed; first compound 0.01 µM)	relative viability (Motesanib + Pemetrexed; first compound 0.03162 µM)	relative viability (Motesanib + Pemetrexed; first compound 0.1 µM)	relative viability (Motesanib + Pemetrexed; first compound 0.3162 µM)	relative viability (Motesanib + Pemetrexed; first compound 1 µM)
LXF-289	1.07	1.06	1.14	1.22	1.16	0.528	0.472	0.484	0.48	0.228	0.182	0.184	0.27	0.212	0.704	0.845	0.898	0.896	0.57
NCI-H23	0.194	0.227	0.186	0.195	0.244	0.703	0.648	0.533	0.704	0.346	0.31	0.341	0.363	0.333	0.645	0.624	0.518	0.447	0.545
NCI-H322M	0.568	0.531	0.53	0.488	0.452	0.686	0.561	0.531	0.499	0.494	0.442	0.502	0.485	0.447	0.681	0.627	0.556	0.691	0.605
NCI-H358	0.434	0.626	0.481	0.661	0.55	0.212	0.144	0.113	0.115	0.103	0.103	0.104	0.103	0.107	0.161	0.162	0.169	0.164	0.166
NCI-H441	0.97	1.2	1.1	1.01	0.954	0.405	0.35	0.369	0.264	0.675	0.518	0.66	0.543	0.578	0.243	0.234	0.238	0.259	0.196
NCI-H460	0.56	0.633	0.772	0.653	0.611	0.53	0.436	0.36	0.239	0.416	0.266	0.514	0.442	0.485	0.0586	0.0647	0.0699	0.0738	0.0745
NCI-H522	0.815	0.721	0.864	1	1	0.557	0.633	0.59	0.56	0.629	0.546	0.611	0.566	0.595	1.01	1.05	0.955	0.844	1.03
NCI-H596	0.973	0.825	1.09	1.01	1.13	0.649	0.69	0.738	0.763	0.917	1.27	1.04	0.843	1.01	0.509	0.503	0.444	0.306	0.358
NCI-H647	0.493	0.464	0.441	0.621	0.525	0.651	0.488	0.346	0.458	0.304	0.239	0.285	0.404	0.359	0.178	0.175	0.16	0.143	0.165
NCI-H650	1.05	1.09	1.07	0.965	1	0.452	0.405	0.406	0.316	0.749		0.709	0.707	0.701	0.853	0.942	0.803	0.956	0.859
NCI-H838	0.895	0.872	0.984	1	0.994	0.563	0.449	0.308	0.37	0.296	0.244	0.255	0.236	0.249	0.23	0.248	0.26	0.231	0.239
NCI-H1355	0.778	0.54	0.837	0.687	0.673	0.418	0.415	0.347	0.39	0.556	0.414	0.639	0.59	0.448	1.06	1.04	1.05	1.07	0.991
NCI-H1395	0.387	0.372	0.39	0.405	0.399	0.428	0.42	0.5	0.481	0.777	0.779	0.816	0.757	0.773	0.923	0.815	0.826	0.881	0.765
NCI-H1437	1.05	1.08	1.15	1.11	1.11	0.257	0.253	0.214	0.171	0.398	0.375	0.393	0.423	0.408	0.297	0.286	0.318	0.32	0.297
NCI-H1651	0.401	0.499	0.547	0.451	0.463	0.283	0.287	0.269	0.283	0.67	0.655	0.754	0.732	0.797	0.544	0.618	0.519	0.531	0.585
NCI-H1666	0.809	0.927	1.02	0.898	0.909	0.554	0.529	0.635	0.487	0.665	0.599	0.634	0.6	0.617	0.954	0.831	0.816	0.868	0.824
NCI-H1734	0.548	0.648	0.584	0.499	0.457	0.323	0.272	0.278	0.281	0.312	0.253		0.25	0.254	0.408	0.386	0.333	0.272	0.265

Source: the supplement of paper PMC10307832
